Earlier results as cited in US12221461B2, “Saponin adjuvant and evaluation method thereof” (OBI PHARMA, INC., priority 2018, dated 2025).

system: antibody levels; settings: previous study, Kensil et al., J. Immunol. 146, 431-437, 1991

Row | Substance | boost of antibody levels (adjuvant effect)
1 | QS-17 | able to dramatically boost antibody levels
2 | QS-18 | able to dramatically boost antibody levels
3 | QS-21 | able to dramatically boost antibody levels
